# In patent publication US20020188026A1, “Methods of sterilizing with dipercarboxylic acids” (Lynntech, Inc., priority 2000, published 2002):
# Values joined by “and” are separate entries in the source; they are usually repeats but may differ in a detail not shown here. Equal entries are not always repeated.
# What was measured:
# [1] = Crude estimate of solubility in water; assay type: physicochemical; settings: crude experiment, estimated
# Description: A crude experiment was done to first estimate the solubility in water of diperglutaric acid (C5), dipersuberic acid (C8), and dipersebacic acid (C10) prepared in accordance with Example 1. It was estimated that the limit of solubility of these peracids in water was 10%, 0.8%, and 0.1% wt/v for diperglutaric, dipersuberic, and dipersebacic, respectively.
# [2] = system: Escherichia coli; test: Zone of inhibition test; assay type: cell-based; settings: E. coli, 20 μL on 6 mm disc, duplicate experiments
# Method: (§1) Zone of inhibition tests are qualitative screens for the inhibitory effect of the compound being tested. Clear zones created by a compound on a bacterial lawn indicates bacteriostatic ability and possible bactericidal capability and the size of the zone of inhibition is a semi-qualitative measure of the strength of the compound. The procedure involved creating lawns of bacteria by spreading 100 μL of broth culture evenly on nutrient agar plates. The bacteria were drawn from broth cultures that had recently reached maximum density. The organisms were Staphylococcus aureus, Psuedomonas aeruginosa, and Escherichia coli. Sterile, 6 mm, white paper discs were placed in the middle of each bacterial lawn. 20 μL of treatment were dispensed onto the surface of each disc. The treatments were: 1.0% and 0.033% diperglutaric acid, 1.0% glutaric acid in water. Each treatment was performed in duplicate for each organism. The plates were incubated at 37° C. for 18-24 hours. All zones were then measured in millimeters across the diameter of the zone of inhibition.
# [3] = system: Psuedomonas aeruginosa; test: Zone of inhibition test; assay type: cell-based; settings: P. aeruginosa, 20 μL on 6 mm disc, duplicate experiments
# Method: as §1
# [4] = system: Staphylococcus aureus; test: Zone of inhibition test; assay type: cell-based; settings: S. aureus, 20 μL on 6 mm disc, duplicate experiments
# Method: as §1
# [5] = system: E. coli; test: Biopsy punch enumeration; assay type: cell-based; settings: 1% treatment
# Method: (§2) Biopsy punch enumeration is an extension of the zone of inhibition test, which involves enumerating organisms on the surface or within a removed core (punch). This test provides a quantitative analysis of the viable organisms remaining after treatment. This procedure was carried out exactly the same as the zone of inhibition testing. After incubation, however, the disc was removed from the plate and a 6-mm core was taken with a sterile, disposable biopsy punch precisely in the location where the disc had been removed. The same three organisms were used and the following treatments were sampled in duplicate: 1.0% diperglutaric acid and 1.0% glutaric acid in water. The core of each plate was aseptically placed in a microcentrifuge tube with 1 ml of sterile 0.85% saline solution and placed on a vortex for 5 minutes. These samples were diluted and plated in duplicate on nutrient agar and allowed to incubate at 37° C. for 18-24 hours for enumeration.
# [6] = system: P. aeruginosa; test: Biopsy punch enumeration; assay type: cell-based; settings: 1% treatment
# Method: as §2
# [7] = system: S. aureus; test: Biopsy punch enumeration; assay type: cell-based; settings: 1% treatment
# Method: as §2
# [8] = system: Bacillus subtilis spores; test: Sporicidal testing, spores heat fixed to glass slides; assay type: cell-based; settings: for Log10 post-disinfection count (cfu/coupon): pre-disinfection 6.69
# Method: Additional spore testing experiments were done with diperglutaric acid. In this example, the diperglutaric acid was dissolved in a 90% water and 10% ethanol solution and used to kill Bacillus subtilis spores. […] Sporicidal capabilities of diperglutaric acid were tested at various concentrations. These procedures called for a 30-minute treatment of Bacillus subtilis spores heat fixed to glass slides. Glass slides were cut in half lengthwise. A suspension of spores, obtained from Steris Corporation of Mentor, Ohio (order #Na026) in 10% bovine serum albumin (as a simulated organic load) was prepared at a concentration of 1.2×10^8 spores per mL. 100 μL of this suspension was heat-fixed to each glass slide. These slides were immersed in the following dilutions of the diperglutaric acid: 2%, 1%, 0.3%, 0.1%, and 0.03%.
# Control slides were treated in glutaric acid: 2% and 1% in a 10% ethanol/water solution. All treatment concentrations were tested in duplicate. The spore coupons were immersed in 30 ml of test solution for 30 minutes. Following the treatment, the slides were rinsed in sterile water to remove residual acid. Each slide was then placed in a sterile 15-ml test tube containing 2 ml of sterile water. These tubes were sonicated for one hour to resuspend all spores. The sonicated slides were removed from the test tubes. The remaining solutions were serially diluted, plated in duplicate on nutrient agar and incubated for 18-24 hours at 37° C.
# The control values (pre-disinfection counts) were obtained from spore carriers immersed in sterile distilled water for 30 minutes prior to rinsing, recovery, and enumeration. The average log10 recovery from these controls was log106.69 per carrier. This compares favorably with the initial number of spores added, which was log107.08. The number of viable spores recovered was 40% of the number initially applied. […] Losses of 90% or less are generally considered acceptable in this type of experiment. […] A log reduction of less than log100.5cfu/carrier was achieved. Thus, the unreacted parent carboxylic acid has little effect on spores. […] Even at a concentration of 0.33%, the diperglutaric acid's effect on spores was similar to that of 2% glutaraldehyde.
# [9] = concentrated peracid solution; cited from earlier work
# [10] = 2.0% freshly prepared glutaraldehyde preparation
smiles,measurement,setting,value
"O=C(CCCC(=O)OO)OO [Diperglutaric acid, diperglutaric acid]",limit of solubility in water,[1],10 % wt/v
same,Diameter of Zones of Inhibition,[2]; 0.033%,"10 mm, 10 mm"
same,Diameter of Zones of Inhibition,[2]; 1% in water,12 mm and 13 mm
same,Diameter of Zones of Inhibition,[3]; 0.033%,10 mm and 11 mm
same,Diameter of Zones of Inhibition,[3]; 1% in water,"12 mm, 12 mm"
same,Diameter of Zones of Inhibition,[4]; 0.033%,10 mm and 9 mm
same,Diameter of Zones of Inhibition,[4]; 1% in water,"13 mm, 13 mm"
same,Log10 reduction (cfu/6 mm diameter sample),[5],7.44 log10
same,Log10 reduction (cfu/6 mm diameter sample),[6],7.53 cfu/6 mm diameter sample
same,Log10 reduction (cfu/6 mm diameter sample),[7],8.11 cfu/6 mm diameter sample
same,Average log10 postdisinfection count (cfu/coupon),"[8]; 0.033% in 10% EtOH, 30 minutes",4.99 cfu/coupon
same,Average log10 reduction (cfu/coupon),"[8]; 0.033% in 10% EtOH, 30 minutes",1.70 cfu/coupon
same,Average log10 postdisinfection count (cfu/coupon),"[8]; 0.1% in 10% EtOH, 30 minutes",4.72 cfu/coupon
same,Average log10 reduction (cfu/coupon),"[8]; 0.1% in 10% EtOH, 30 minutes",1.97 cfu/coupon
same,Average log10 postdisinfection count (cfu/coupon),"[8]; 0.33% in 10% EtOH, 30 minutes",3.57 cfu/coupon
same,Average log10 reduction (cfu/coupon),"[8]; 0.33% in 10% EtOH, 30 minutes",3.12 cfu/coupon
same,Log10 post-disinfection count (cfu/coupon),"[8]; 0.33% in 10% EtOH, 30 minutes",3.62 cfu/coupon and 3.52 cfu/coupon
same,viable spores recovered from carriers,[8]; 1% and 2% for 30 minutes,no viable spores were recovered
same,Average log10 postdisinfection count (cfu/coupon),"[8]; 1.0% in 10% EtOH, 30 minutes",<1.0 cfu/coupon
same,Average log10 reduction (cfu/coupon),"[8]; 1.0% in 10% EtOH, 30 minutes",6.69 cfu/coupon
same,Average log10 postdisinfection count (cfu/coupon),"[8]; 2.0% in 10% EtOH, 30 minutes",<1.0 cfu/coupon
same,Average log10 reduction (cfu/coupon),"[8]; 2.0% in 10% EtOH, 30 minutes",6.69 cfu/coupon
"O=CCCCC=O [Glutaraldehyde, reference compound]",Average log10 postdisinfection count (cfu/coupon),[8]; [10],3.10 cfu/coupon
same,Average log10 reduction (cfu/coupon),[8]; [10],3.05 cfu/coupon
"O=C(O)CCCC(=O)O [Glutaric acid, reference compound]",Diameter of Zones of Inhibition,[2]; 1% in water,No zone
same,Diameter of Zones of Inhibition,[3]; 1% in water,No zone
same,Diameter of Zones of Inhibition,[4]; 1% in water,No zone
same,Log10 postdisinfection count (cfu/6 mm diameter sample),[5]; predisinfection 7.44,6.75 cfu/6 mm diameter sample
same,Log10 reduction (cfu/6 mm diameter sample),[6],0.00 cfu/6 mm diameter sample
same,Log10 postdisinfection count (cfu/6 mm diameter sample),[6]; predisinfection 7.53,7.57 cfu/6 mm diameter sample
same,Log10 reduction (cfu/6 mm diameter sample),[7],0.63 cfu/6 mm diameter sample
same,Log10 postdisinfection count (cfu/6 mm diameter sample),[7]; predisinfection 8.11,7.48 cfu/6 mm diameter sample
same,Average log10 postdisinfection count (cfu/coupon),"[8]; 1.0% in 10% EtOH, 30 minutes",6.23 cfu/coupon
same,Average log10 reduction (cfu/coupon),"[8]; 1.0% in 10% EtOH, 30 minutes",0.46 cfu/coupon
same,Log10 post-disinfection count (cfu/coupon),"[8]; 1.0% in 10% EtOH, 30 minutes",6.26 cfu/coupon and 6.19 cfu/coupon
same,Average log10 postdisinfection count (cfu/coupon),"[8]; 2.0% in 10% EtOH, 30 minutes",6.26 cfu/coupon
same,Average log10 reduction (cfu/coupon),"[8]; 2.0% in 10% EtOH, 30 minutes",0.43 cfu/coupon
same,Log10 post-disinfection count (cfu/coupon),"[8]; 2.0% in 10% EtOH, 30 minutes",6.27 cfu/coupon and 6.24 cfu/coupon
same,sporicidal effectiveness,[8]; concentrations of 1% and 2% for 30 minutes,not an effective sporicidal agent
O=C(CCCCC(=O)OO)OO [diperadipic acid],solubility for peracid concentrate solution,[9],not soluble enough to prepare an adequate peracid concentrate solution
O=C(CCCCCCCCC(=O)OO)OO [dipersebacic acid],limit of solubility in water,[1],0.1 % wt/v
O=C(CCCCCCC(=O)OO)OO [dipersuberic acid],limit of solubility in water,[1],0.8 % wt/v
"O=C(CCC(=O)OO)OO [dipersuccinic acid, reference compound]",stability of peracid concentrate,[9],did not form stable peracid concentrates
